Measured values published in PubChem BioAssay AID1963846 (Molecular Pharmacology Branch, DTP, NCI, 2024).

Test system: 454973-116-R2-J3-PDC complex spheroid viability
Assay: Anticancer human tumor 454973-116-R2-J3-PDC patient-derived pancreatic carcinoma cell line growth inhibition [POLQ]
Settings: for IC50: curve of first compound; for viability, T/C: stronger effect = lower value
Method in brief: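 Three-cell-type spheroids modelling solid tumor plus stroma served as the readout system; POL inhibitors were tested individually and in combination, concentration ranges set by clinical Cmax where known.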

[1] = second compound 0.0316 µM, first compound 0.0316 µM
[2] = second compound 0.0316 µM, first compound 0.1 µM
[3] = second compound 0.0316 µM, first compound 0.316 µM
[4] = second compound 0.0316 µM, first compound 1 µM
[5] = second compound 0.1 µM, first compound 0.0316 µM
[6] = second compound 0.1 µM, first compound 0.1 µM
[7] = second compound 0.1 µM, first compound 0.316 µM
[8] = second compound 0.1 µM, first compound 1 µM
[9] = second compound 0.316 µM, first compound 0.0316 µM
[10] = second compound 0.316 µM, first compound 0.1 µM
[11] = second compound 0.316 µM, first compound 0.316 µM
[12] = second compound 0.316 µM, first compound 1 µM
[13] = second compound 1 µM, first compound 0.0316 µM
[14] = second compound 1 µM, first compound 0.1 µM
[15] = second compound 1 µM, first compound 0.316 µM
[16] = second compound 1 µM, first compound 1 µM
[17] = second compound 3.16 µM, first compound 0.0316 µM
[18] = second compound 3.16 µM, first compound 0.1 µM
[19] = second compound 3.16 µM, first compound 0.316 µM
[20] = second compound 3.16 µM, first compound 1 µM
[21] = second compound 10 µM, first compound 0.0316 µM
[22] = second compound 10 µM, first compound 0.1 µM
[23] = second compound 10 µM, first compound 0.316 µM
[24] = second compound 10 µM, first compound 1 µM
[25] = second compound 0.0316 µM, first compound 3.16 µM
[26] = second compound 0.0316 µM, first compound 10 µM
[27] = second compound 0.1 µM, first compound 3.16 µM
[28] = second compound 0.1 µM, first compound 10 µM
[29] = second compound 0.316 µM, first compound 3.16 µM
[30] = second compound 0.316 µM, first compound 10 µM
[31] = second compound 1 µM, first compound 3.16 µM
[32] = second compound 1 µM, first compound 10 µM
[33] = second compound 3.16 µM, first compound 3.16 µM
[34] = second compound 3.16 µM, first compound 10 µM
[35] = second compound 10 µM, first compound 3.16 µM
[36] = second compound 10 µM, first compound 10 µM
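Also: spheroids exposed to drugs for seven days before measurement.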
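For viability, T/C in this document: percent viability relative to DMSO vehicle control wells taken as 100%.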

Q: Which results are given for C=CCn1c(=O)c2cnc(Nc3ccc(N4CCN(C)CC4)cc3)nc2n1-c1cccc(C(C)(C)O)n1 + Cc1cccc(N(C)C(=O)C2C(O)CCN2c2nc(C)cc(C(F)(F)F)c2C#N)c1?
A: IC50 (second compound 0.0316 µM): 470 nM; IC50 (second compound 0.1 µM): 464 nM; IC50 (second compound 0.316 µM): 449 nM; IC50 (second compound 1 µM): 481 nM; IC50 (second compound 3.16 µM): 479 nM; IC50 (second compound 10 µM): 452 nM; viability, T/C (second compound 0.0316 µM, first compound 0.00316 µM): 109%; viability, T/C (second compound 0.0316 µM, first compound 0.01 µM): 103%; viability, T/C [1]: 105%; viability, T/C [2]: 106%; viability, T/C [3]: 71.5%; viability, T/C [4]: 9.25%; viability, T/C (second compound 0.1 µM, first compound 0.00316 µM): 98%; viability, T/C (second compound 0.1 µM, first compound 0.01 µM): 104%; viability, T/C [5]: 102%; viability, T/C [6]: 108%; viability, T/C [7]: 70.7%; viability, T/C [8]: 8.44%; viability, T/C (second compound 0.316 µM, first compound 0.00316 µM): 96.6%; viability, T/C (second compound 0.316 µM, first compound 0.01 µM): 98.9%; viability, T/C [9]: 103%; viability, T/C [10]: 103%; viability, T/C [11]: 68.4%; viability, T/C [12]: 7.81%; viability, T/C (second compound 1 µM, first compound 0.00316 µM): 113%; viability, T/C (second compound 1 µM, first compound 0.01 µM): 97.3%; viability, T/C [13]: 104%; viability, T/C [14]: 110%; viability, T/C [15]: 74.1%; viability, T/C [16]: 7.99%; viability, T/C (second compound 3.16 µM, first compound 0.00316 µM): 112%; viability, T/C (second compound 3.16 µM, first compound 0.01 µM): 106%; viability, T/C [17]: 99.7%; viability, T/C [18]: 102%; viability, T/C [19]: 72.8%; viability, T/C [20]: 9.03%; viability, T/C (second compound 10 µM, first compound 0.00316 µM): 105%; viability, T/C (second compound 10 µM, first compound 0.01 µM): 105%; viability, T/C [21]: 97%; viability, T/C [22]: 98.8%; viability, T/C [23]: 68.5%; viability, T/C [24]: 8.81%

Q: Which results are given for C=CC(=O)N1CCN(c2nc(=O)n(-c3c(C)ccnc3C(C)C)c3nc(-c4c(O)cccc4F)c(F)cc23)C(C)C1 (stereo not drawn) + COC1C(OC(N)=O)C(O)C(Oc2ccc3c(O)c(NC(=O)c4ccc(O)c(CC=C(C)C)c4)c(=O)oc3c2C)OC1(C)C?
A: IC50 (second compound 0.0316 µM): > 10000 nM; IC50 (second compound 0.1 µM): > 10000 nM; IC50 (second compound 0.316 µM): > 10000 nM; IC50 (second compound 1 µM): > 10000 nM; IC50 (second compound 3.16 µM): > 10000 nM; IC50 (second compound 10 µM): > 10000 nM; viability, T/C [1]: 108%; viability, T/C [2]: 106%; viability, T/C [3]: 97.8%; viability, T/C [4]: 111%; viability, T/C [25]: 114%; viability, T/C [26]: 106%; viability, T/C [5]: 108%; viability, T/C [6]: 110%; viability, T/C [7]: 105%; viability, T/C [8]: 113%; viability, T/C [27]: 111%; viability, T/C [28]: 108%; viability, T/C [9]: 102%; viability, T/C [10]: 107%; viability, T/C [11]: 103%; viability, T/C [12]: 113%; viability, T/C [29]: 113%; viability, T/C [30]: 108%; viability, T/C [13]: 113%; viability, T/C [14]: 108%; viability, T/C [15]: 105%; viability, T/C [16]: 114%; viability, T/C [31]: 104%; viability, T/C [32]: 103%; viability, T/C [17]: 110%; viability, T/C [18]: 101%; viability, T/C [19]: 105%; viability, T/C [20]: 97.9%; viability, T/C [33]: 111%; viability, T/C [34]: 102%; viability, T/C [21]: 101%; viability, T/C [22]: 104%; viability, T/C [23]: 99.8%; viability, T/C [24]: 105%; viability, T/C [35]: 110%; viability, T/C [36]: 103%

Q: For CCc1cc2c(N3CCc4c(cc(Cn5ccnc5)cc4-c4cn(C)nc4C(F)(F)F)C3=O)ccnc2c(OC)n1 + Nc1ccc(C#CCN(C(=O)Cc2ncc(C(F)(F)F)cc2C(F)(F)F)c2ccc(F)cc2)nn1, which IC50 (second compound 0.0316 µM) is on record?
A: > 10000 nM

Q: And the IC50 (second compound 0.1 µM)?
A: > 10000 nM

Q: What about the IC50 (second compound 0.316 µM) of the same compound?
A: > 10000 nM

Q: And the IC50 (second compound 1 µM)?
A: > 10000 nM

Q: What about the IC50 (second compound 3.16 µM) of the same compound?
A: > 10000 nM

Q: What about the IC50 (second compound 10 µM) of the same compound?
A: > 10000 nM

Q: What about the viability, T/C [1] of the same compound?
A: 119%

Q: What about the viability, T/C [2] of the same compound?
A: 91.5%

Q: And the viability, T/C [3]?
A: 84.1%

Q: And the viability, T/C [4]?
A: 78.7%

Q: What about the viability, T/C [25] of the same compound?
A: 72.4%

Q: And the viability, T/C [26]?
A: 63.3%

Q: And the viability, T/C [5]?
A: 99%

Q: What about the viability, T/C [6] of the same compound?
A: 88.2%

Q: And the viability, T/C [7]?
A: 80.8%

Q: What about the viability, T/C [8] of the same compound?
A: 84.6%

Q: What about the viability, T/C [27] of the same compound?
A: 72.3%

Q: And the viability, T/C [28]?
A: 62.6%

Q: And the viability, T/C [9]?
A: 93%

Q: And the viability, T/C [10]?
A: 95.1%

Q: What about the viability, T/C [11] of the same compound?
A: 90.3%

Q: And the viability, T/C [12]?
A: 72.6%

Q: What about the viability, T/C [29] of the same compound?
A: 78%

Q: What about the viability, T/C [30] of the same compound?
A: 55.8%

Q: What about the viability, T/C [13] of the same compound?
A: 112%

Q: What about the viability, T/C [14] of the same compound?
A: 92.3%

Q: And the viability, T/C [15]?
A: 93.3%

Q: And the viability, T/C [16]?
A: 76.5%

Q: What about the viability, T/C [31] of the same compound?
A: 76.6%

Q: And the viability, T/C [32]?
A: 58.1%

Q: And the viability, T/C [17]?
A: 101%

Q: And the viability, T/C [18]?
A: 99.2%

Q: What about the viability, T/C [19] of the same compound?
A: 93.6%

Q: And the viability, T/C [20]?
A: 82.4%

Q: And the viability, T/C [33]?
A: 68.3%

Q: What about the viability, T/C [34] of the same compound?
A: 60.7%

Q: What about the viability, T/C [21] of the same compound?
A: 111%

Q: What about the viability, T/C [22] of the same compound?
A: 114%

Q: And the viability, T/C [23]?
A: 89.1%

Q: And the viability, T/C [24]?
A: 84.7%

Q: What about the viability, T/C [35] of the same compound?
A: 81.8%

Q: What about the viability, T/C [36] of the same compound?
A: 58.5%

Q: For COc1cc(C2c3cc4c(cc3C(OC3OC5COC(C)OC5C(O)C3O)C3COC(=O)C23)OCO4)cc(OC)c1O (stereo not drawn) + Nc1ccc(C#CCN(C(=O)Cc2ncc(C(F)(F)F)cc2C(F)(F)F)c2ccc(F)cc2)nn1, which IC50 (second compound 0.0316 µM) is on record?
A: 934 nM

Q: What about the IC50 (second compound 0.1 µM) of the same compound?
A: 923 nM

Q: What about the IC50 (second compound 0.316 µM) of the same compound?
A: 817 nM

Q: What about the IC50 (second compound 1 µM) of the same compound?
A: 785 nM

Q: What about the IC50 (second compound 3.16 µM) of the same compound?
A: 775 nM

Q: And the IC50 (second compound 10 µM)?
A: 771 nM

Q: And the viability, T/C [1]?
A: 98.2%

Q: And the viability, T/C [2]?
A: 94.3%

Q: And the viability, T/C [3]?
A: 78.4%

Q: And the viability, T/C [4]?
A: 50.9%

Q: What about the viability, T/C [25] of the same compound?
A: 14.2%

Q: What about the viability, T/C [26] of the same compound?
A: 8.22%

Q: And the viability, T/C [5]?
A: 107%

Q: And the viability, T/C [6]?
A: 102%

Q: What about the viability, T/C [7] of the same compound?
A: 84.1%

Q: What about the viability, T/C [8] of the same compound?
A: 49.8%

Q: What about the viability, T/C [27] of the same compound?
A: 12.3%

Q: What about the viability, T/C [28] of the same compound?
A: 7.75%

Q: And the viability, T/C [9]?
A: 98.5%

Q: What about the viability, T/C [10] of the same compound?
A: 106%

Q: And the viability, T/C [11]?
A: 82.7%

Q: And the viability, T/C [12]?
A: 42.6%

Q: What about the viability, T/C [29] of the same compound?
A: 15.1%

Q: What about the viability, T/C [30] of the same compound?
A: 5.73%

Q: And the viability, T/C [13]?
A: 112%

Q: And the viability, T/C [14]?
A: 94.6%

Q: What about the viability, T/C [15] of the same compound?
A: 79.1%

Q: And the viability, T/C [16]?
A: 44.3%

Q: What about the viability, T/C [31] of the same compound?
A: 12.8%

Q: What about the viability, T/C [32] of the same compound?
A: 7.26%

Q: What about the viability, T/C [17] of the same compound?
A: 107%

Q: What about the viability, T/C [18] of the same compound?
A: 109%

Q: And the viability, T/C [19]?
A: 80.3%

Q: What about the viability, T/C [20] of the same compound?
A: 42%

Q: What about the viability, T/C [33] of the same compound?
A: 12.3%

Q: And the viability, T/C [34]?
A: 5.16%

Q: What about the viability, T/C [21] of the same compound?
A: 115%

Q: And the viability, T/C [22]?
A: 104%

Q: And the viability, T/C [23]?
A: 79.3%

Q: And the viability, T/C [24]?
A: 43.5%

Q: What about the viability, T/C [35] of the same compound?
A: 10.6%

Q: What about the viability, T/C [36] of the same compound?
A: 5.67%
